Among the data in patent US20240124467A1, “FUSED PYRIMIDINE COMPOUNDS AS INHIBITORS OF MENIN-MLL INTERACTION” (Biomea Fusion, Inc., priority 2020, published 2024) are IC50 values, retold here.

Type in all cases: cell-based
For one test, the system named is K-562. In words: Cell proliferation inhibition (CellTiter-Glo), K-562 cells. Conditions: Homo sapiens, K-562 (BCR-ABL). As to the method: (§1) The present example evaluates the ability of compounds described herein, inhibitors of Menin/MLL interaction, to inhibit cell proliferation. The proliferation inhibitory effect was investigated in human MLL-leukemia cells selected on the bases of MLL fusion proteins and listed in the table below.
(§2) ATP is present in all metabolically active cells and is considered as a marker for cell viability and proliferation. The metabolic cell activity was determined using the CellTiter-Glo kit from Promega, an ATP monitoring system based on the production of luminescence by the reaction of ATP with added UltraGlo® recombinant luciferase (Kawano et al., 2016, PLOS One, 8:11(7):e0158888), according to the supplier's experimental recommendations. The assay is based on a 96 well plate format. All experiments were carried out in duplicate in one test occasion.
(§3) Test items were dissolved at 20 mM in DMSO with purity ≥99.9% (Sigma catalog no. D8418) and stored at −20° C. Cells were maintained in RPMI-1640 medium (Invitrogen catalog no. 618700) supplemented with 10% of Heat Inactivated FBS (Invitrogen catalog no. 10500) and 1% Pen-Strep (Invitrogen catalog no. 15140) and cultured at 37° C. in a humidified incubator with 5% CO2. Cell lines were grown in suspension and the cell density was maintained in a range of 5×10^4-1×10^6 viable cells/ml where possible. Cells were pelleted at 130 g×5 min.
(§4) Serial dilutions of compounds 1 to 3 in DMSO 100% were prepared starting from a 2.5 mM solutions (prepared by diluting 1:8 the 20 mM stock solution) to generate a 7 point concentration response curve (CRC). Seven concentrations of test compounds (e.g., 5.00×10^−6-1.67×10^−6-5.56×10^−7-1.85×10^−7-6.17×10^−8-2.06×10^−8-6.86×10^−9 M) were assessed in duplicate in an individual test occasion in parallel in the selected cell lines. KO-539 was used as a reference compound and tested in duplicate at seven similar concentrations. 100% of proliferation was represented by the untreated cells (0.2% DMSO).
(§5) Cell proliferation inhibition was monitored at both the following end points: Day 4 (T4) and Day 7 (T7). For the appropriate cell density during the exponential cell growth and re-supply with fresh compound solution at T4, cells were diluted (1:4) with fresh medium containing the compound concentration (1×).
(§6) For each plate to test, one 0.4 μL copy plate and four 0.3 μL copy plates were stamped into 96-well plates not treated for cell adhesion (Sarstedt—cat. no. 82.1581.001) by acoustic liquid handling (Echo) at a concentration which was 500 fold the final assay concentration. Stamped plates were stored at −20° C.
(§7) On Day 0, the day of the experiment cell line suspensions were counted by Cell Viability Analyser, Vi-CELL (Beckman Coulter AY15292), and diluted with fresh medium to obtain the following cell densities: K-562 500 c/ml, MOLM-13 1,000 c/ml, MV4-11 10,000 c/ml, OCI-AML-3 500 c/ml, and U-937 500-1,000 c/ml. 200 μL/well and 150 μL/well of cell suspension were added into the 0.4 μL/well and 0.3 μL/well compound plates, respectively. Cell plate containing 200 μL/well suspension were incubated at 37° C. in a humidified incubator with 5% CO2. From each well of the 150 μL/well cell assay plate, 100 μL were harvested and transferred into a 96-well Optiplate (Perkin Elmer, cat. no. 6005290). Cell viability was measured as described below.
(§8) On Day 4, 150p/well of fresh medium was added into a new 0.3 μL/well copy compound plates. From each well of the 200 μL/well cell assay plate, 100 μL was sampled for the cell viability measurement as described below. 50p was harvested and added to the 150p/well compound plate prepared as described in the first point to dilute 1:4 the cell suspension. The cell assay plate diluted and containing 200 μL/well suspension was incubated at 37° C. in a humidified incubator with 5% CO2.
(§9) On Day 4, 150p/well of fresh medium was added into a new 0.3 μL/well copy compound plates. […]

A further test deals with MOLM-13. In words: Cell proliferation inhibition (CellTiter-Glo), MOLM-13 cells. Conditions: Homo sapiens, MOLM-13 (MLL-AF9). The method, then:
as §1, §2, §3, §4, §5, §6, §7, §8, §9

Another test concerns MV4-11. In words: Cell proliferation inhibition (CellTiter-Glo), MV4-11 cells. To be noted: Homo sapiens, MV4-11 (MLL-AF4). As to the method: as §1, §2, §3, §4, §5, §6, §7, §8, §9
Where [1] appears, read: K562, 96 h, Day 4, read-out: K-562 IC50 μM (Day 4).
Setting [2] is: 96 h, Day 4, read-out: MOLM-13 Day IC50 μM (Day 4)*.
Where [3] appears, read: 96 h, Day 4, read-out: MV-4:11 IC50 μM (Day 4)*.

Where two headings read alike, the source gives them in different places.

Consider `C=CC(=O)N[C@@H]1CCCN(Cc2ccnc(C(=O)NC3CCN(c4nc5c(N6CCOCC6)ncnc5s4)CC3)c2)C1` [Compound B0700-310, (R)-4-((3-acrylamidopiperidin-1-yl)methyl)-N-(1-(7-morpholinothiazolo[5,4-d]pyrimidin-2-yl)piperidin-4-yl)picolinamide], for which the IC50 in the test with K-562 (setting [1]) was 2.89 µM; in the test on MOLM-13 (setting [2]) it was more than 10 µM; in the test with MV4-11 (setting [3]) it was 8.92 µM.
As for `C=CC(=O)NC1CN(c2ccnc(CC(=O)Nc3ccc(-c4cc5c(N6CCOCC6)ncnc5[nH]4)cc3)n2)C1` [Compound B0700-323, N-(1-(2-(2-((4-(4-morpholino-7H-pyrrolo[2,3-d]pyrimidin-6-yl)phenyl)amino)-2-oxoethyl)pyrimidin-4-yl)azetidin-3-yl)acrylamide], the figures for the IC50 in the test with K-562 (setting [1]), in the test on MOLM-13 (setting [2]) and with MV4-11 (setting [3]) were more than 10 µM, 3.67 µM and 1.18 µM, respectively.
The matching figures for `C=CS(=O)(=O)N[C@@H]1CCCN(Cc2ccnc(C(=O)Nc3ccc(-c4cc5c(N6CCOCC6)ncnc5[nH]4)cc3)c2)C1` [Compound B0700-333, (R)—N-(4-(4-morpholino-7H-pyrrolo[2,3-d]pyrimidin-6-yl)phenyl)-4-((3-(vinylsulfonamido)piperidin-1-yl)methyl)picolinamide]: 0.074 µM, 0.069 µM and 0.051 µM.
In the same order, the values of `Cc1cc(C)n2c1C=C1C=CC(CCC(=O)NCCCCN(C)C/C=C/C(=O)N[C@@H]3CCCN(Cc4ccnc(C(=O)Nc5ccc(-c6cc7c(N8CCOCC8)ncnc7[nH]6)cc5)c4)C3)=[N+]1[B-]2(F)F` [Compound B0700-503] are 2.51 µM, 4.51 µM and 2.89 µM.
In the same order, the values of `Cc1cc(C)n2c1C=C1C=CC(CCC(=O)NCCCCN(C)C/C=C/C(=O)Nc3ccc(CC(=O)Nc4ccc(-c5cc6c(N7CCOCC7)ncnc6[nH]5)cc4)cc3)=[N+]1[B-]2(F)F` [Compound B0700-504] are more than 10 µM, 1.23 µM and 1.6 µM.
As for `C=CC(=O)NC1CN(c2ccnc(NC3CC4(CCN(c5nc6c(N7CCOCC7)ncnc6[nH]5)CC4)C3)c2)C1` [Compound B0700-507, N-(1-(2-((7-(6-morpholino-9H-purin-8-yl)-7-azaspiro[3.5]nonan-2-yl)amino)pyridin-4-yl)azetidin-3-yl)acrylamide], the concentration for half-maximal inhibition (IC50) with K-562 (setting [1]) is more than 10 µM; with MOLM-13 (setting [2]), 5.21 µM; with MV4-11 (setting [3]), 4.22 µM.
With `C=CC(=O)N[C@H]1CCN(c2cccc(CS(=O)(=O)Nc3ccc(-c4cc5c(N6CCOCC6)ncnc5[nH]4)cc3)c2)C1` [Compound B0700-511, (S)—N-(1-(3-((N-(4-(4-morpholino-7H-pyrrolo[2,3-d]pyrimidin-6-yl)phenyl)sulfamoyl)methyl)phenyl)pyrrolidin-3-yl)acrylamide], the IC50 was 8.31 µM with K-562 (setting [1]), 0.185 µM with MOLM-13 (setting [2]) and 0.113 µM in the test with MV4-11 (setting [3]).
For `C=CC(=O)N1CC(N2CCCC(CNS(=O)(=O)N3CCN(c4nc5c(N6CCOCC6)ncnc5[nH]4)CC3)C2)C1` (stereo not shown) [Compound B0700-512], the values for the half-maximal inhibitory concentration (IC50) in the test with K-562 (setting [1]), in the test on MOLM-13 (setting [2]) and with MV4-11 (setting [3]) were 5.18 µM, more than 10 µM and more than 10 µM, respectively.
Turning to `C=CC(=O)N[C@@H]1CCCN(Cc2ccnc(C(C)Nc3ccc(-c4cc5c(N6CCOCC6)ncnc5[nH]4)cc3)c2)C1` (stereo partly drawn) [Compound B0700-514, N-((3R)-1-((2-(1-((4-(4-morpholino-7H-pyrrolo[2,3-d]pyrimidin-6-yl)phenyl)amino)ethyl)pyridin-4-yl)methyl)piperidin-3-yl)acrylamide], the IC50 is more than 10 µM in the test with K-562 (setting [1]); more than 10 µM in the test with K-562 (K562, 168 h, Day 7, read-out: K-562 IC50 μM (Day 7)*); 0.631 µM with MOLM-13 (setting [2]); 0.546 µM in the test on MOLM-13 (168 h, Day 7, read-out: MOLM-13 Day IC50 μM (Day 7)*); 0.651 µM with MV4-11 (setting [3]); 0.54 µM in the test with MV4-11 (168 h, Day 7, read-out: MV-4:11 IC50 μM (Day 7)*).
Turning to `C=CC(=O)N[C@@H]1CCCN(Cc2ccnc(C(=O)Nc3ccc(-c4cc5c(C6CCOCC6)ncnc5[nH]4)cc3)c2)C1` [Compound B0700-516, (R)-4-((3-acrylamidopiperidin-1-yl)methyl)-N-(4-(4-(tetrahydro-2H-pyran-4-yl)-7H-pyrrolo[2,3-d]pyrimidin-6-yl)phenyl)picolinamide], the results for the IC50 in the test with K-562 (setting [1]), with MOLM-13 (setting [2]) and in the test with MV4-11 (setting [3]) were 4.34 µM, 1.56 µM and 1.5 µM, respectively.
`C=CC(=O)N[C@@H]1CCCN(Cc2ccnc(C(=O)NC3CCN(c4nc5c(N6CCOCC6)ncnc5o4)CC3)c2)C1` [Compound B0700-518]: the IC50 in the test on K-562 (setting [1]) was 5.3 µM; in the test with MOLM-13 (setting [2]), more than 10 µM; in the test with MV4-11 (setting [3]), more than 10 µM.
Take `O=C(/C=C/Cc1cnc[nH]1)N[C@@H]1CCCN(Cc2ccnc(C(=O)Nc3ccc(-c4cc5c(N6CCOCC6)ncnc5[nH]4)cc3)c2)C1` [Compound B0700-523]: the IC50 with K-562 (setting [1]) is more than 10 µM; in the test on MOLM-13 (setting [2]) it was 0.213 µM; in the test on MV4-11 (setting [3]), 0.232 µM.
As to `CN(C/C=C/C(=O)N[C@@H]1CCCN(Cc2ccnc(C(=O)Nc3ccc(-c4cc5c(N6CCOCC6)ncnc5[nH]4)cc3)c2)C1)C1CC1` [Compound B0700-524, (R,E)-4-((3-(4-(cyclopropyl(methyl)amino)but-2-enamido)piperidin-1-yl)methyl)-N-(4-(4-morpholino-7H-pyrrolo[2,3-d]pyrimidin-6-yl)phenyl)picolinamide], the values for the 50% inhibitory concentration (IC50) with K-562 (setting [1]), in the test with MOLM-13 (setting [2]) and with MV4-11 (setting [3]) were more than 10 µM, 0.683 µM and 0.764 µM, respectively.
The matching figures for `CCN(C/C=C/C(=O)N[C@@H]1CCCN(Cc2ccnc(C(=O)Nc3ccc(-c4cc5c(N6CCOCC6)ncnc5[nH]4)cc3)c2)C1)C1CC1` [Compound B0700-525]: 6.7 µM, 0.506 µM and 0.634 µM.
Turning to `C=CC(=O)N[C@@H]1CCCN(Cc2ccnc(C(=O)NC3CCC(c4cc5c(N6CCOCC6)ncnc5[nH]4)CC3)c2)C1` (stereo partly drawn) [Compound B0700-526, (R)-4-((3-acrylamidopiperidin-1-yl)methyl)-N-(4-(4-morpholino-7H-pyrrolo[2,3-d]pyrimidin-6-yl)cyclohexyl)picolinamide], the IC50 is more than 10 µM in the test with K-562 (setting [1]), 3.46 µM with MOLM-13 (setting [2]) and 6.83 µM in the test on MV4-11 (setting [3]).
In the same order, the values of `C=CC(=O)N[C@@H]1CCCN(Cc2ccnc(C(=O)NC3CC=C(c4cc5c(N6CCOCC6)ncnc5[nH]4)CC3)c2)C1` (stereo partly shown) [Compound B0700-527] are 2.89 µM, 0.607 µM and 0.371 µM.
Turning to `[2H]C([2H])=C([2H])C(=O)N[C@@H]1CCCN(Cc2ccnc(C(=O)Nc3ccc(-c4cc5c(N6CCOCC6)ncnc5[nH]4)cc3)c2)C1` [Compound B0700-557, (R)-4-((3-(acrylamido-2,3,3-d3)piperidin-1-yl)methyl)-N-(4-(4-morpholino-7H-pyrrolo[2,3-d]pyrimidin-6-yl)phenyl)picolinamide], the IC50 in the test on K-562 (setting [1]) stood at 0.997 µM; in the test on MOLM-13 (setting [2]), 0.271 µM.
Regarding `C=CC(=O)N[C@H]1CCCN(Cc2ccnc(C(=O)Nc3ccc(-c4cc5c(N6CCOCC6)ncnc5[nH]4)cc3)c2)C1` [Compound B0700-704], the half-inhibitory concentration (IC50) in the test with K-562 (setting [1]) was determined as 0.74 µM; in the test on MOLM-13 (setting [2]) it was 0.35 µM.
